# Data as given in patent US20240124439A1, “Pyrido[2,3-D]Imidazole Derivatives and Their Use As Inhibitors of ITK for the Treatment of Skin Disease” (Pfizer Inc., priority 2020, published 2024).
# Experiments:
# [1] = molecular target: IL-2-Inducible T-Cell Kinase (ITK) (Homo sapiens (Human), UniProt Q08881); test: ITK enzyme assay (IL-2-inducible T-cell kinase activity); assay type: biochemical; conditions: geometric mean of count n
# Experimental: ITK activity was determined by measuring the effect of a test compound in an ITK enzyme assay.
# 1.0 M HEPES Buffer pH 7.5 solution was prepared as follows: 238.3 g HEPES free acid (Sigma) and 800 mL of water were combined, and the mixture was stirred until complete dissolution. The pH was adjusted to 7.5 via titration with 5N NaOH and the volume adjusted to 1000 mL. The solution was filtered and sterilized.
# ITK assay buffer was prepared as follows: 50 mL of HPLC-grade water was treated with 2 mL of 1.0 M HEPES Buffer, 500 μL of 2% Gelatin (Sigma), 1.0 mL of aqueous MgCl2 solution (1.0 M), and 1.0 mL of aqueous glutathione solution (0.5 M), and the solution was mixed. The solution was brought to 99 mL in a graduated cylinder by addition of water and sterilized through a 0.2 μm filter. 0.1 mL of Brij-35™ Surfact-Amps™ Detergent Solution (10% w/v aqueous solution, ThermoFisher) and 1.0 mL of ATP (Teknova,100 mM) were added and the solution was mixed.
# Preparation of 1.33× ITK enzyme solution was as follows: 49.99 mL of ITK assay buffer was treated with 4.1 μL of ITK enzyme (ITK FL (N-Flag and C-His tagged, […]) Lake Pharma, 0.25 mg/ml in a buffer containing 25 mM Tris pH 7.8, 150 mM NaCl, 10% glycerol and 2 mM TCEP) and the mixture was gently agitated. The resulting solution was stored on ice. 30 Minutes prior to use, the enzyme solution was removed from ice and equilibrated to RT by incubation in a RT water bath.
# Preparation of 4× ITK substrate solution was as follows: 50 mL of ITK assay buffer was treated with 100 μL of BTK peptide (China Peptide Company, 2 mM stock solution in DMSO). The tube was capped, mixed by gently inverting the tube, and then stored on ice. 30 Minutes prior to use, the substrate solution was removed from ice and equilibrated to RT by incubation in a RT water bath.
# At the time of assay, 7.5 μL of the 1.33× ITK enzyme solution was added to plate wells containing 0.1 μL of varying concentrations of test compound in DMSO. The plate was incubated 30 min at RT. The plate wells were each treated with 2.5 uL of the 4× ITK substrate solution and the plate was sealed (TopSeal™, Perkin Elmer). The plate was spun at 1000 rpm for 30 sec and then incubated for 60 min at RT. The seal was removed, and each well was treated with 10 μL of Stop/Detect Buffer (20 mM HEPES pH 7.5, 0.01% gelatin, 1 nM LANCE PT66 (Perkin Elmer), 16.5 μg/ml Surelight APC (Perkin Elmer), 10 mM EDTA, 250 mM NaCl). The plate was again covered and was spun at 1000 rpm for […]. The plate was allowed to incubate overnight at RT and in a closed carrier to reduce dehydration. The seal was removed, and the fluorescence was read with a plate reader with an excitation wavelength of […]. The concentrations and resulting effect values for the tested compound were plotted and the concentration of compound required for 50% effect (IC50) was determined with the four-parameter logistic dose response equation.
# [2] = tested on: activated CD4+ human T-cells (IL-2); test: IL-2 inhibition in supernatants from activated CD4+ human T-cells (cisbio HTRF); assay type: cell-based; conditions: T-cell; CD3/CD28-activated CD4+ human T cells, ImmunoCult stimulation 20 to 24 hrs; geometric mean of count n
# Experimental: IL-2 inhibition activity in supernatants from activated CD4+ human T-cells was determined by measuring the effect of a test compound on the activity using the cisbio HTRF™ technology.
# Human CD4+ T cells were activated with CD3/CD28 for 3 days and expanded for an additional 4-6 days (7 to 9 days total). On day 0, frozen CD4+ T cells were thawed, treated with CD3/CD28 Dynabeads, and incubated at 37° C./5% CO2. On day 3, the beads were removed, and the cells were diluted to 5×10^5 cells/cm^2, placed in G-Rex10 flask, and incubated at 37° C./5% CO2. On day 7 to day 9 the cells were removed from the G-Rex flasks, counted and diluted back to 1×10^6 cells/ml in standard tissue culture flask.
# The expanded CD4+ T-cells were centrifuged at 300×g for 10 minutes and resuspended to 0.5 million cells per ml (30,000 cells/well). 60 μl of CD4+ T cells were added per well to a 384 well plate containing 0.1 μL of varying concentrations of test compound in DMSO. The plates were incubated for 15 min at 37° C./5% CO2. 20 μl of diluted ImmunoCult™ (STEMCELL Technologies, 1:12.5 in T cell assay media) were added to all wells of the plate (1:50 final assay concentration). The plates were incubated for an additional 20 to 24 hrs at 37° C./5% CO2. The plates were centrifuged at 300×g for 10 minutes. 16 μL of supernatant was removed and combined with 4 μl of IL-2 HTRF Abs. (cisbio kit). Plates were incubated for 3 hours at RT and read with an EnVision plate reader at 665 nm and 615 nm wavelengths. The concentrations and resulting effect values for the tested compound were plotted and the concentration of compound required for 50% effect (IC50) was determined with the four-parameter logistic dose response equation.
# Sequence of IL-2-Inducible T-Cell Kinase (ITK) (Q08881 whole entry): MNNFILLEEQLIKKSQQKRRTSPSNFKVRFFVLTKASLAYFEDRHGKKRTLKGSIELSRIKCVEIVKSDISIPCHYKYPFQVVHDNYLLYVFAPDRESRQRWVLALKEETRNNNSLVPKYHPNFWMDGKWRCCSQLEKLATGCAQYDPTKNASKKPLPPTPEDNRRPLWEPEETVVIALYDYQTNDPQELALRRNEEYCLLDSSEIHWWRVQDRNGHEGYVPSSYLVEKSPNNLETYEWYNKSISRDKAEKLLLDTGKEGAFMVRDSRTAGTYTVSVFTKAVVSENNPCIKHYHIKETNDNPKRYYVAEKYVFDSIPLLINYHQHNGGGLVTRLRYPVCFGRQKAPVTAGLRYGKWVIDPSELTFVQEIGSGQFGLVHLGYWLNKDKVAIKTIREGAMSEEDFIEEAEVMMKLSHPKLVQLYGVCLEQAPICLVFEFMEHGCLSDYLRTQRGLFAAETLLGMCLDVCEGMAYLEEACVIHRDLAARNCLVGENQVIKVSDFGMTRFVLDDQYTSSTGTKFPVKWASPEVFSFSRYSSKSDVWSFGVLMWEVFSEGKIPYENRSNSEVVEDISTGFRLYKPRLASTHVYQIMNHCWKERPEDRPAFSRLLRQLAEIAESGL
IC50 [1],IC50 [2],Compound
70 nM,398 nM,"C[C@@H](C(=O)N(C)c1cnc2nc(-c3n[nH]c4c3C[C@@H]3C[C@]3(C)C4)[nH]c2c1)n1cccn1 [Example 7, (S)-N-Methyl-N-(2-((4aS,5aR)-5a-methyl-1,4,4a,5,5a,6-hexahydrocyclopropa[f]indazol-3-yl)-1H-imidazo[4,5-b]pyridin-6-yl)-2-(1H-pyrazol-1-yl)propenamide]"
27 nM,324 nM,"CN(c1cnc2nc(-c3n[nH]c4c3C[C@@H]3C[C@]3(C)C4)[nH]c2c1)C(=O)[C@H]1C[C@@H](C)C1 [Example 89, (1s,3R)-N,3-Dimethyl-N-(2-((4aS,5aR)-5a-methyl-1,4,4a,5,5a,6-hexahydrocyclopropa[f]indazol-3-yl)-1H-imidazo[4,5-b]pyridin-6-yl)cyclobutane-1-carboxamide]"
25 nM,117 nM,"CN(C(=O)CC1CCCC1)c1cnc2nc(-c3n[nH]c4c3C[C@@H]3C[C@]3(C)C4)[nH]c2c1 [Example 45, 2-Cyclopentyl-N-methyl-N-(2-((4aS,5aR)-5a-methyl-1,4,4a,5,5a,6-hexahydrocyclopropa[f]indazol-3-yl)-1H-imidazo[4,5-b]pyridin-6-yl)acetamide]"
144 nM,384 nM,"CN(C(=O)CC(C)(C)C)c1cnc2[nH]c(-c3n[nH]c4c3CCC(C)(C)C4)nc2c1 [Example 91, N-(2-(6,6-Dimethyl-4,5,6,7-tetrahydro-1H-indazol-3-yl)-3H-imidazo[4,5-b]pyridin-6-yl)-N,3,3-trimethylbutanamide]"
72 nM,534 nM,"CN(C(=O)C(F)C1CCOCC1)c1cnc2nc(-c3n[nH]c4c3C[C@@H]3C[C@]3(C)C4)[nH]c2c1 (stereo partly drawn) [Example 11, 2-Fluoro-N-methyl-N-(2-((4aS,5aR)-5a-methyl-1,4,4a,5,5a,6-hexahydrocyclopropa[f]indazol-3-yl)-1H-imidazo[4,5-b]pyridin-6-yl)-2-(tetrahydro-2H-pyran-4-yl)acetamide]"
698 nM,> 10000 nM,"CC[C@H](C)C(=O)N(C)c1cnc2[nH]c(-c3n[nH]c4c3CCC(C)(C)C4)nc2c1 [Example 92, (S)-N-(2-(6,6-Dimethyl-4,5,6,7-tetrahydro-1H-indazol-3-yl)-3H-imidazo[4,5-b]pyridin-6-yl)-N,2-dimethylbutanamide]"
54 nM,611 nM,"CN(C(=O)CN1CCOCC1=O)c1cnc2nc(-c3n[nH]c4c3C[C@@H]3C[C@]3(C)C4)[nH]c2c1 [Example 56, N-Methyl-N-(2-((4aS,5aR)-5a-methyl-1,4,4a,5,5a,6-hexahydrocyclopropa[f]indazol-3-yl)-1H-imidazo[4,5-b]pyridin-6-yl)-2-(3-oxomorpholino)acetamide]"
100 nM,367 nM,"CCCC(=O)N(C)c1cnc2[nH]c(-c3n[nH]c4c3CCC(C)(C)C4)nc2c1 [Example 108, N-(2-(6,6-Dimethyl-4,5,6,7-tetrahydro-1H-indazol-3-yl)-3H-imidazo[4,5-b]pyridin-6-yl)-N-methylbutyramide]"
43 nM,1590 nM,"CN(C(=O)CN1CCCCC1=O)c1cnc2nc(-c3n[nH]c4c3C[C@@H]3C[C@]3(C)C4)[nH]c2c1 [Example 79, N-Methyl-N-(2-((4aS,5aR)-5a-methyl-1,4,4a,5,5a,6-hexahydrocyclopropa[f]indazol-3-yl)-1H-imidazo[4,5-b]pyridin-6-yl)-2-(2-oxopiperidin-1-yl)acetamide]"
109 nM,370 nM,CN(C(=O)C12CC(F)(C1)C2)c1cnc2nc(-c3n[nH]c4c3C[C@@H]3C[C@]3(C)C4)[nH]c2c1 [Example 59]
123 nM,294 nM,"CN(C(=O)C1CCOCC1)c1cnc2nc(-c3n[nH]c4c3C[C@@H]3C[C@]3(C)C4)[nH]c2c1 [Example 46, N-Methyl-N-(2-((4aS,5aR)-5a-methyl-1,4,4a,5,5a,6-hexahydrocyclopropa[f]indazol-3-yl)-1H-imidazo[4,5-b]pyridin-6-yl)tetrahydro-2H-pyran-4-carboxamide]"
51 nM,389 nM,"CCC(C)CC(=O)N(C)c1cnc2nc(-c3n[nH]c4c3C[C@@H]3C[C@]3(C)C4)[nH]c2c1 (stereo partly drawn) [Example 76, N,3-Dimethyl-N-(2-((4aS,5aR)-5a-methyl-1,4,4a,5,5a,6-hexahydrocyclopropa[f]indazol-3-yl)-1H-imidazo[4,5-b]pyridin-6-yl)pentanamide]"
104 nM,682 nM,"CN(C(=O)C1(C)CC(F)(F)C1)c1cnc2[nH]c(-c3n[nH]c4c3CCC(C)(C)C4)nc2c1 [Example 100, N-(2-(6,6-Dimethyl-4,5,6,7-tetrahydro-1H-indazol-3-yl)-3H-imidazo[4,5-b]pyridin-6-yl)-3,3-difluoro-N,1-dimethylcyclobutane-1-carboxamide]"
92 nM,292 nM,"CN(C(=O)C1(C)CC(F)(F)C1)c1cnc2nc(-c3n[nH]c4c3C[C@@H]3C[C@]3(C)C4)[nH]c2c1 [Example 66, 3,3-Difluoro-N,1-dimethyl-N-(2-((4aS,5aR)-5a-methyl-1,4,4a,5,5a,6-hexahydrocyclopropa[f]indazol-3-yl)-1H-imidazo[4,5-b]pyridin-6-yl)cyclobutane-1-carboxamide]"
12 nM,59 nM,"CN(C(=O)[C@@H]1C[C@@H]2[C@H](C1)C2(F)F)c1cnc2nc(-c3n[nH]c4c3C[C@@H]3C[C@]3(C)C4)[nH]c2c1 [Example 67, (1R,3s,5S)-6,6-Difluoro-N-methyl-N-(2-((4aS,5aR)-5a-methyl-1,4,4a,5,5a,6-hexahydrocyclopropa[f]indazol-3-yl)-1H-imidazo[4,5-b]pyridin-6-yl)bicyclo[3.1.0]hexane-3-carboxamide]"
150 nM,568 nM,"CCC1(C(=O)N(C)c2cnc3nc(-c4n[nH]c5c4C[C@@H]4C[C@]4(C)C5)[nH]c3c2)CCOCC1 [Example 65, 4-Ethyl-N-methyl-N-(2-((4aS,5aR)-5a-methyl-1,4,4a,5,5a,6-hexahydrocyclopropa[f]indazol-3-yl)-1H-imidazo[4,5-b]pyridin-6-yl)tetrahydro-2H-pyran-4-carboxamide]"
93 nM,462 nM,"CN(C(=O)C1(C)CCOCC1)c1cnc2nc(-c3n[nH]c4c3C[C@@H]3C[C@]3(C)C4)[nH]c2c1 [Example 70, N,4-Dimethyl-N-(2-((4aS,5aR)-5a-methyl-1,4,4a,5,5a,6-hexahydrocyclopropa[f]indazol-3-yl)-1H-imidazo[4,5-b]pyridin-6-yl)tetrahydro-2H-pyran-4-carboxamide]"
